The text below walks through data of paper PMC3191288 (Matrix biology : journal of the International Society for …, 2011).

Bounds are passed on as bounds.

For test [1], the system named is proMMP-2 activation. As to conditions: ref Strongin et al., 1995; cited from earlier work.
For test [2], the target named is recombinant full-length TIMP-2 (human (plasmid pGWIGH/htimp-2)) (UniProt P16035). Put plainly: ELISA. On the technique in general: ELISA stands for enzyme-linked immunosorbent assay.
For test [3], the target named is recombinant human MMP-2^E404A (human) (UniProt P08253). Put plainly: ELISA.
Test [4] deals with proMMP-2 activation by HT1080 cell membranes. Put plainly: Activation of purified proMMP-2 by isolated HT1080 cell membranes. In kind it is biochemical, human. The conditions noted are these: peptide 3.7–100 μM, 16 h at 22 °C, pH 7.4; repeated at least 3 times.
In test [5] the test system is collagen binding domain of MMP-2 (CBD). Description: Surface plasmon resonance, CBD over immobilized peptide. As to conditions: CBD 10 μM over immobilized peptide, SPR. Set-up: species or system human. Background: Surface plasmon resonance follows binding to a sensor surface in real time, without labels.
Test [6] has as its target T1, PEX (hemopexin domain of MMP-2) (Homo sapiens, UniProt P08253).
T1 sequence (P08253 446-660): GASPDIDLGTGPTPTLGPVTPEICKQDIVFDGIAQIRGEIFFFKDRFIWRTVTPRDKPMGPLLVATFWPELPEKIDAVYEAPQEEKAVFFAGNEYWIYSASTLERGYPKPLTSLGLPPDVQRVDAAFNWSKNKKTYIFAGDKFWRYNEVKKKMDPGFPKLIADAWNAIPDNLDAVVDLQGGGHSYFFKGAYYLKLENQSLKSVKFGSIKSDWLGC
Description: Surface plasmon resonance, PEX over immobilized peptide. Type of test: binding. As to conditions: PEX 0.3–10 μM over immobilized peptide, SPR.

Test [7] relates to proMMP-2 activation in HT1080 fibrosarcoma cells. Description: Cell surface activation of proMMP-2 in Con A stimulated HT1080 cell culture. The conditions noted are these: Con A 20 μg/ml, 0 nM C-TIMP-2. In kind it is cell-based, human.
Test [8] deals with recombinant full-length TIMP-2 (human (plasmid pGWIGH/htimp-2), UniProt P16035 27-220). Description: ELISA.
Chain of recombinant full-length TIMP-2 (P16035 27-220): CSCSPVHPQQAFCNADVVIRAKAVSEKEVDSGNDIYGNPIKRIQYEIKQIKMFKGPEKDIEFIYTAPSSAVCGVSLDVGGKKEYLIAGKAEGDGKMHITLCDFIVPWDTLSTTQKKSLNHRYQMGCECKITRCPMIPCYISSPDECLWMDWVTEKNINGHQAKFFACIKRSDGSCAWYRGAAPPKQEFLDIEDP

Chain of recombinant full-length TIMP-2 (human (plasmid pGWIGH/htimp-2)) (P16035 27-220): as above

Turning to “tissue inhibitor of matrix metalloproteinase 2 [TIMP-2]”, the “concentration at which full-length TIMP-2 inhibited activation of proMMP-2” value in test [1] is “greater than 285 nM”.

For “recombinant human MMP-2^E404A (from UniProt P08253 30-660) (enzyme)”, the EC50 (in general, the midpoint of the concentration-response curve) in test [2] turned out to be 50 nM.

As to “recombinant carboxyl-terminal domain of TIMP-2 (C-TIMP-2) (from UniProt P16035 154-220) (domain or fragment)”, in test [3], the IC50 – broadly, the midpoint of a concentration-inhibition curve – was found to be 5 µM and the Kd (as a rule, the constant that tells how readily two partners part at equilibrium) amounted to 390 nM.

Turning to CAWYRGAAPPK [P175S], in test [4], the “inhibition of proMMP-2 activation by peptide” value is on record as “did not have any inhibitory effect on the cell membrane- mediated activation of proMMP-2”. Moreover, in test [5], the “binding of CBD to peptide” value is given as “did not bind”. Further, the “binding of PEX to peptide” value in test [6] is given as “consistently very weak”.

In the case of concanavalin A [Con A], in test [7], the “activated MMP-2 band intensity” value is given as 34,199 RDU, the “non-activated MMP-2 band intensity” value is 3,439 RDU and the “proMMP-2 activated by Con A” value is listed as more than 90%.

B1: hemopexin-like domain of MMP-2 (PEX) (domain or fragment, human, UniProt P08253 446-660, looked up)
chain: T1 sequence (P08253 446-660)
modifications: biotinylated (sites not given) in the assays on coated TIMP-2; unlabeled when coated and in SPR
On to B1, for which, in test [8], the EC50 was found to be 150 nM.
